Assay results: patent publication US20120100555A1, “Synthesis And Use Of Fluorophore-Tagged Antimalarials” (priority 2009, published 2012)
pIC50: −log10 of the molar value.

Legend:
[1] = system: P. falciparum strains 3D7 (CQ-susceptible); test: Inhibitory concentration (IC50) determination, Hoechst staining and flow cytometry; assay type: cell-based, Plasmodium falciparum
Procedure: Parasitized cultures were incubated for 48 hours with various concentrations of the test compounds and, thereafter, parasitemia was determined using Hoechst staining and flow cytometric analyses.
(§1) Plasmodium falciparum culture. […] Parasite cultures were maintained in 75 cm^2 or 125 cm^2 flasks using malaria culture media (MCM) consisting of RPMI 1640 supplemented with 0.5% (w/v) albumax I (Invitrogen), 0.005% (w/v) hypoxanthine, 0.03% (w/v) L-glutamate, 0.25% (w/v) gentamycin and 2.5% human erythrocytes. Flasks were gassed with 3% CO2, 4% O2 and 93% N2 and incubated at 37° C. in a dark incubator. Culture medium was replenished during subculturing on alternate days. Thin Giemsa smears were made to determine parasitemia before subculture and at the start of each experiment. Sorbitol synchronization (See Lambros, C., and Vanderberg, J. P. (1979) J Parasitol 65, 418-420) was carried out weekly to select for ring-stage parasites. Saponin enrichment (See Beaumelle, B. D., et al., (1987) J. Parasitol 73, 743-748) was carried out prior to staining with CaspaTag to liberate the parasites from host erythrocytes. Cultures of approximately 10% parasitemia were used, with parasites being in the late-ring stage (22-26 hours post-invasion) during the administration of inhibitor and drugs unless otherwise stated.
Inhibitory concentration (IC50) determination. […] To determine parasitemia, cultures were stained with Hoechst 33342, as described above, and analyzed by flow cytometry.
Flow Cytometric Analyses. Cell numbers and fluorescence intensity after staining with JC-1 were assayed by a flow cytometer (DAKO Cytomation Cyan ADP), equipped with an argon-ion laser tuned to 488 nm and a violet laser tuned to 405 nm. Green and red fluorescence was detected using 525 and 595 nm band-pass filters respectively. The flow cytometer was adjusted for forward and side scattering to accommodate infected erythrocytes. Between 10,000 to 20,000 infected erythrocytes or enriched parasites were analyzed from each sample and its respective duplicate to ensure reliability. At least three independent experiments were performed unless otherwise stated.

[2] = system: Plasmodium falciparum parasites; test: CM-CQ accumulation with chemo-sensitizers, flow cytometry; assay type: cell-based; details: for effect of pre-treatment on CM-CQ accumulation in K1: K1 (CQ-resistant), 10 uM chemo-sensitizer 30 min, then 6 uM CM-CQ 10 hrs
Procedure: FIG. 8 is a graph showing the effects of chemo-sensitizers on coumarin-conjugated chloroquine (CM-CQ) accumulation in Plasmodium falciparum parasites. Data were obtained by flow cytometry.
(§2) Subsequently, 6 uM of Coumarin-Chloroquine (CM-CQ) was added to the samples for 10 hrs and left to incubate in the dark at 37° C. To ascertain the exact parasitemia of each condition, cultures in duplicate wells were stained with Hoechst just before flow cytometric analysis and fluorescence plate measurements. The proportion of CM-CQ-stained parasites was the ratio of the proportion of CM-CQ-stained infected erythrocyte culture over the proportion of Hoechst-positive erythrocytes.

P. falciparum, 3D7 [3] = test: Mitochondria trans-membrane potential assay (JC-1); assay type: cell-based, Plasmodium falciparum
Procedure: as §1, with “Cultures of approximately 10% parasitemia were used, with parasites being in the late-ring stage (22-26 hours post-invasion) during the administration of inhibitor and drugs unless otherwise stated.” left out
Flow Cytometric Analyses. Cell numbers and fluorescence intensity after staining with JC-1 were assayed by a flow cytometer (DAKO Cytomation Cyan ADP), equipped with an argon-ion laser tuned to 488 nm and a violet laser tuned to 405 nm. Green and red fluorescence was detected using 525 and 595 nm band-pass filters respectively. […] Between 10,000 to 20,000 infected erythrocytes or enriched parasites were analyzed from each sample and its respective duplicate to ensure reliability. […]

[4] = system: Plasmodium falciparum parasites; test: CM-CQ accumulation with chemo-sensitizers, fluorescent plate reader; assay type: cell-based; details: for effect of pre-treatment on CM-CQ accumulation in K1: K1 (CQ-resistant), 10 uM chemo-sensitizer 30 min, then 6 uM CM-CQ 10 hrs
Procedure: FIG. 9 is a graph showing the effects of chemo-sensitizers on coumarin-conjugated chloroquine (CM-CQ) accumulation in Plasmodium falciparum parasites, obtained by spectrofluorometer plate readings.
as §2

P. falciparum, 3D7 [5] = details: low nanomolar concentrations of CQ, 8 hours
Procedure: as §1

[6] = 3D7, 48 hours, at the tested concentrations

Row | SMILES | effect of pre-treatment on CM-CQ accumulation in K1 [2] | effect of pre-treatment on CM-CQ accumulation in K1 [4] | also measured
1 | CN(C)c1ccc2c(CC(=O)O)cc(=O)oc2c1 [CM, 7-dimethyl amino-4-coumarinacetic acid] | – | – | cytotoxicity [1, 6]: not cytotoxic; inhibitory effect on parasitemia [1, 6]: no detectable inhibitory effect
2 | CCN(CCCCNc1ccnc2cc(Cl)ccc12)CC(=O)NCCNC(=O)Cc1cc(=O)oc2cc(N(C)C)ccc12 [CM-CQ] | – | – | CM-CQ accumulation, 3D7 compared to 7G8 and K1 ([2]; 6 uM CM-CQ 10 hrs, p<0.05): different levels; activity compared to chloroquine (FIG. 2) ([1]; 3D7): activity comparable to chloroquine; pIC50 ([1]; Plasmodium falciparum, read-out: IC50 (50% inhibitory concentration), 3D7, ring stage, 48 hours, parasitemia by Hoechst 33342 flow cytometry): 6.46; proportion of parasites containing functional mitochondrion with transmembrane potential (ΔΨm) after treatment (P. falciparum, 3D7 [3]; JC-1 J-aggregates, dose-dependent decline from about 90% in uninduced cells): ~60%; CM-CQ accumulation, 3D7 compared to 7G8 and K1 ([4]; 6 uM CM-CQ 10 hrs, p<0.001): different levels
3 | CN(C)CCC(c1ccc(Cl)cc1)c1ccccn1 (centres unmarked) [CPR, chlorpheneramine] | increase was also detected | significantly increased | –
4 | CN(C)CCCN1c2ccccc2Sc2ccc(Cl)cc21 [CPZ, chlorpromazine] | significantly increased | significantly increased | –
5 | CCN(CC)CCCC(C)Nc1ccnc2cc(Cl)ccc12 (centres unmarked) [CQ, Chloroquine diphosphate] | – | – | PCD features (JC-1) (P. falciparum, 3D7 [3]; low nanomolar concentrations of CQ, 8 hours): basal levels; PCD features (CaspaTag) (P. falciparum, 3D7 [5]): basal levels
6 | CNCCCN1c2ccccc2CCc2ccccc21 [DSP, desipramine] | significantly increased | significantly increased | –
7 | COc1ccc([C@@H]2Sc3ccccc3N(CCN(C)C)C(=O)[C@@H]2OC(C)=O)cc1 [DTZ, diltiazem] | not | not | –
8 | CC(CN1c2ccccc2Sc2ccccc21)N(C)C (centres unmarked) [PMZ, promethazine] | significantly increased | increase was also detected | –
9 | CC(C)NCC(O)COc1cccc2ccccc12 (centres unmarked) [PPL, propranolol] | not | not | –
10 | COc1ccc(CCN(C)CCCC(C#N)(c2ccc(OC)c(OC)c2)C(C)C)cc1OC (centres unmarked) [VPM, verapamil] | significantly increased | significantly increased | –
